# pIC50: −log10 of the molar value.
# Test system: 313798-341-R-J2-PDC spheroids, viability
# Assay: Anticancer human tumor 313798-341-R-J2-PDC patient-derived cervical squamous cell carcinoma cell line growth inhibition [PI3K]
# Details: spheroids with HUVEC and MSC; for pIC50: curve of first compound; for viability, T/C: stronger effect = lower value
# Text: Combinatorial screen of targeted agents with the PI3K inhibitors inavolisib, alpelisib, duvelisib, and copanlisib in multi-cell type tumor spheroids
# A high-throughput screen of multi-cell type tumor spheroids was designed to identify active combinations of targeted small molecules and PI3K pathway inhibitors. Complex spheroids include a stromal component modeled by human endothelial cells (HUVEC) and fibroblasts modeled by human mesenchymal stem cells (MSCs). The concentration ranges selected for each drug and investigational agent were based upon clinically achievable concentrations if the clinical Cmax of the agent was known.
# Compounds. The drugs and investigational agents: inavolisib (NSC800729), alpelisib (NSC765974), duvelisib (NSC772469), copanlisib (NSC816437), ipatasertib (NSC767898), afuresertib (NSC778305), talazoparib (NSC767125), sapanisertib (NSC764658), selumetinib (NSC741078), tovorafenib (DAY101, NSC766906), vemurafenib (NSC761431), ravoxertinib (NSC781343), sotorasib (NSC818433), MRTX1133 (NSC 836407), abemaciclib (NSC 768073), palbociclib (NSC758247), venetoclax (NSC 766270), SY5609 (NSC837396), enzalutamide (NSC755605), and darolutamide (NSC825331), were obtained from the National Cancer Institute (NCI) Developmental Therapeutics Program Chemical Repository. The FDA-approved anticancer drug set is available from the NCI Developmental Therapeutics Program. […] The stock solutions were prepared in dimethyl sulfoxide (DMSO, Sigma-Aldrich, St. Louis, MO, cat. D2650) at 800-fold the tested concentration and stored at -70 degrees C prior to their use. All drugs and investigational agents were tested over a range starting from a high concentration at or near the clinical Cmax and decreasing in half-log increments. If the clinical Cmax for an agent had not been determined, the highest concentration tested was 10 microM.
# Cell Culture. All cells were maintained in an incubator at 37 degrees C and 5% CO2 with 95% humidity. The PDC lines were cultured according to standard operating procedures established by the NCI PDMR (https://pdmr.cancer.gov/sops/default.htm). All PDCs were thawed and cultured in Matrigel-coated flasks prepared with a working solution of 1X Ham's F-12 nutrient mix, without supplementation (Invitrogen, Waltham, MA, cat. 11765054), 100 U/mL penicillin-streptomycin (Invitrogen, cat. 15140122), and 2.5% Matrigel (Corning Inc., Corning, NY, cat. 354248) for the first three passages. The 354836-022-R-J1-PDC, 475296-252-R-J1-PDC, and 997726-040-R-J2-PDC lines were cultured in 6A media, which includes advanced DMEM/F-12 (Thermo Fisher Scientific, cat. 12634028), 10 mM HEPES (Thermo Fisher Scientific, cat. 15630080), 1X GlutaMAX supplement (Thermo Fisher Scientific, cat. 35050061), 0.1 mg/mL primocin (InvivoGen, San Diego, CA, cat. ant-pm-2), 10% defined fetal bovine serum, heat inactivated (HyClone Laboratories Inc., Logan, UT, cat. SH30070.03HI), 50% L-WRN conditioned media (ATCC, cat. CRL-3276), 1.25 mM N-Acetyl-L-cysteine (Sigma-Aldrich, cat. A9165), 10 mM nicotinamide (Sigma-Aldrich, cat. N0636), 1X B-27 supplement (Thermo Fisher Scientific, cat. 17504044), 1X N-2 supplement (Thermo Fisher Scientific, cat. 17502048), and 10 microM Y-27632 dihydrochloride (Tocris Bioscience, Bristol, United Kingdom, cat. 1254). The 624824-186-R-J2-PDC line was cultured in 6C/Colon 1B media, which includes all 6A media components plus 50 ng/mL human EGF recombinant protein (Thermo Fisher Scientific, cat. PHG0311). […]
# 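Further: spheroids exposed to compounds for seven days.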
# 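Wherever viability, T/C is given: 100% = DMSO vehicle control viability.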
structure (smiles),measurement,setting,value
CC(C)n1nc(-c2ccc3oc(N)nc3c2)c2c(N)ncnc21 + COc1c(OCCCN2CCOCC2)ccc2c3n(c(=NC(=O)c4cnc(N)nc4)nc12)CCN3,pIC50,second compound 0.00316 µM,7.23
same,pIC50,second compound 0.01 µM,7.31
same,pIC50,second compound 0.0316 µM,7.74
same,pIC50,second compound 0.1 µM,> 9.50
same,pIC50,second compound 0.316 µM,> 9.50
same,pIC50,second compound 1 µM,> 9.50
same,"viability, T/C","second compound 0.00316 µM, first compound 0.000316 µM",94.2%
same,"viability, T/C","second compound 0.00316 µM, first compound 0.001 µM",99%
same,"viability, T/C","second compound 0.00316 µM, first compound 0.00316 µM",97.3%
same,"viability, T/C","second compound 0.00316 µM, first compound 0.01 µM",84%
same,"viability, T/C","second compound 0.00316 µM, first compound 0.0316 µM",62.8%
same,"viability, T/C","second compound 0.00316 µM, first compound 0.1 µM",39.6%
same,"viability, T/C","second compound 0.01 µM, first compound 0.000316 µM",98.1%
same,"viability, T/C","second compound 0.01 µM, first compound 0.001 µM",83.9%
same,"viability, T/C","second compound 0.01 µM, first compound 0.00316 µM",83.3%
same,"viability, T/C","second compound 0.01 µM, first compound 0.01 µM",74%
same,"viability, T/C","second compound 0.01 µM, first compound 0.0316 µM",59.6%
same,"viability, T/C","second compound 0.01 µM, first compound 0.1 µM",35.4%
same,"viability, T/C","second compound 0.0316 µM, first compound 0.000316 µM",72.1%
same,"viability, T/C","second compound 0.0316 µM, first compound 0.001 µM",72.2%
same,"viability, T/C","second compound 0.0316 µM, first compound 0.00316 µM",85.8%
same,"viability, T/C","second compound 0.0316 µM, first compound 0.01 µM",52%
same,"viability, T/C","second compound 0.0316 µM, first compound 0.0316 µM",44.3%
same,"viability, T/C","second compound 0.0316 µM, first compound 0.1 µM",23.6%
same,"viability, T/C","second compound 0.1 µM, first compound 0.000316 µM",41.4%
same,"viability, T/C","second compound 0.1 µM, first compound 0.001 µM",39.7%
same,"viability, T/C","second compound 0.1 µM, first compound 0.00316 µM",40.2%
same,"viability, T/C","second compound 0.1 µM, first compound 0.01 µM",31.8%
same,"viability, T/C","second compound 0.1 µM, first compound 0.0316 µM",23.9%
same,"viability, T/C","second compound 0.1 µM, first compound 0.1 µM",13.4%
same,"viability, T/C","second compound 0.316 µM, first compound 0.000316 µM",17.7%
same,"viability, T/C","second compound 0.316 µM, first compound 0.001 µM",17.5%
same,"viability, T/C","second compound 0.316 µM, first compound 0.00316 µM",15.3%
same,"viability, T/C","second compound 0.316 µM, first compound 0.01 µM",13.8%
same,"viability, T/C","second compound 0.316 µM, first compound 0.0316 µM",14.3%
same,"viability, T/C","second compound 0.316 µM, first compound 0.1 µM",8.89%
same,"viability, T/C","second compound 1 µM, first compound 0.000316 µM",13.2%
same,"viability, T/C","second compound 1 µM, first compound 0.001 µM",10.9%
same,"viability, T/C","second compound 1 µM, first compound 0.00316 µM",10.3%
same,"viability, T/C","second compound 1 µM, first compound 0.01 µM",12.2%
same,"viability, T/C","second compound 1 µM, first compound 0.0316 µM",12.9%
same,"viability, T/C","second compound 1 µM, first compound 0.1 µM",8.5%
